Test results published in patent US20070190520A1, “METHOD OF CHARACTERIZING A BIOLOGICALLY ACTIVE COMPOUND” (priority 2006, published 2007).

Test system: Adult stem cells from peripheral blood (CD34+/CD38−)
Experiment: viability and cell number of peripheral blood stem cells expanded in a rotatable TVEMF bioreactor (Example 4)
Format: cell-based
Settings: 20 ppm added at initiation, end of 14 days, Sample 2 cells from an individual with known liver damage
Protocol: The rotatable bioreactor may preferably be filled with culture medium consisting of Isocove's modified Dulbecco's medium (IMDM) (GIBCO, Grand Island N.Y.), supplemented with 5% human albumin, 100 ng/ml recombinant human G-CSF (Amgen Inc., Thousand Oaks, Calif.), and 100 ng/ml recombinant human stem cell factor (SCF) (Amgen). In addition, D-Penicillamine [D(−)-2-Amino-3-mercapto-3-methylbutonoic acid] (Sigma-Aldrich) a copper chelating agent, dissolved in DMSO, may preferably be introduced to the culture medium in the rotatable bioreactor in an amount of 10 ppm. Adult stem cells from peripheral blood (CD34+/CD38−) may preferably be placed in the culture chamber of the rotatable bioreactor at a concentration of 0.75×10^6 cells/ml.
Two samples of peripheral blood stem cells should preferably be prepared by this method. Sample 1 should preferably be from an individual with no known liver damage. Sample 2 should preferably be from an individual with known liver damage. The samples should be prepared as above and placed in two different rotatable bioreactors under the conditions noted in Example 1 and at the same concentrations.

With `CC(=O)Nc1ccc(O)cc1` [acetaminophen] the “viability and number of cells counted” value was “neither die nor grow, but rather, remain unchanged”.
